Assay results: US5356898A, “Substituted 4,6-di-tertiary-butyl 5-hydroxy-pyrimidines” (Warner-Lambert Company, priority 1993, dated 1994)

How the values were obtained:
5-lipoxygenase = experiment: ARBL whole cell 5-lipoxygenase assay (LTB4 formation in RBL-1 cells, RIA); format: cell-based, rat; details: @ 10 μM; inhibition of LTB4 formation, RBL-1 cells stimulated with calcium ionophore A23187
Method: (§1) ARBL/ARBC Whole Cell 5-Lipoxygenase and Cyclooxygenase Assays The rat basophilic leukemia cell line (RBL-1) was obtained from the American Type Culture Collection (Rockville, Md.). Radioimmunoassay (RIA) kits of LTB4 and PGF2.sbsb.α were obtained from Amersham (Arlington Heights, Ill.) and Seragen (Boston, Mass.), respectively. RBL-1 cells are grown in suspension culture in Eagle's minimum essential medium supplemented with 12% fetal bovine serum at 37° C. in an incubator supplied with air-5% carbon dioxide. Cells are harvested by centrifugation. They are washed with cold phosphate buffered saline pH 7.4 (PBS; NaCl, 7.1 g; Na2 HPO4, 1.15 g; KH2 PO4, 0.2 g; and KCl, 0.2 g/l). Cells are finally suspended in PBS containing 1.0 mM calcium at a density of 2×10^6 cells/mi. Cells are incubated with and without test agent (in DMSO) (1% DMSO is without effect on arachidonic acid metabolism) for ten minutes at room temperature. Calcium ionophore A23187 (5 μM) is added and cells are incubated for seven minutes at 37° C. The reaction is stopped by chilling the tubes on ice for ten minutes. Cells are separated by centrifugation and the supernatant is stored at -20° Aliquots (100 μl) are analyzed for LTB4 and PGF2.sbsb.α using radioimmunoassay kits as provided by the supplier. […]

cyclooxygenase = experiment: ARBC whole cell cyclooxygenase assay (PGF2α formation in RBL-1 cells, RIA); format: cell-based, rat; details: @ 10 μM; inhibition of PGF2α formation, RBL-1 cells stimulated with calcium ionophore A23187
Method: as §1

Compound	ARBL (5-lipoxygenase)	ARBC (cyclooxygenase)
CSc1nnc(-c2nc(C(C)(C)C)c(O)c(C(C)(C)C)n2)s1 [Example 13, 5-[4,6-Bis(1,1-dimethylethyl)-5-hydroxy-2-pyrimidinyl]-2-thiomethoxy-1,3,4-3H-thiadiazole]	93%	85%
CC(C)(C)c1nc(C#N)nc(C(C)(C)C)c1O [Example 19, 4,6-Bis.(1,1-dimethylethyl)-5-hydroxy-2-pyrimidine carbonitrile]	70%	45%
